Data set [1] deals with T1, Oatp1 (Solute carrier organic anion transporter family member 1A1) (Rattus norvegicus, UniProt P46720).
T1 sequence (P46720 whole entry): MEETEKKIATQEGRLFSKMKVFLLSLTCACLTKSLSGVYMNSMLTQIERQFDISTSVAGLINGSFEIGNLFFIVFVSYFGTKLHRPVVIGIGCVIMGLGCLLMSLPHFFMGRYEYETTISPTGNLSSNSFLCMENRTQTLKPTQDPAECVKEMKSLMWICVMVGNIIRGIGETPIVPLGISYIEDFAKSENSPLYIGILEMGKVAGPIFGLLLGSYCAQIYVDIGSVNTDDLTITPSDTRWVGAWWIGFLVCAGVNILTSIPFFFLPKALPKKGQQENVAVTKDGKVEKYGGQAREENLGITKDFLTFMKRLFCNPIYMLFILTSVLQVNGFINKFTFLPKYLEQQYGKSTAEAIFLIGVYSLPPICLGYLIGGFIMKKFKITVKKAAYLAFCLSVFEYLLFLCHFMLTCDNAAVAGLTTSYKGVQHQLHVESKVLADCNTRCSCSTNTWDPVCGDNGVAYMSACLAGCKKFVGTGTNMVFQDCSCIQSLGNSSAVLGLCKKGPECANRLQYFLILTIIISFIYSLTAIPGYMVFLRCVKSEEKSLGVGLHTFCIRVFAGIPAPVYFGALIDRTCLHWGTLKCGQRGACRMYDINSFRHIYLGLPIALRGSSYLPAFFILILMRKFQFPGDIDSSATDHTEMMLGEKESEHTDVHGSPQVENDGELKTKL
In words: TP_TRANSPORTER: inhibition of E217betaG uptake (E217betaG: 0.1 uM, Indomethacin: 1000 uM) in Oatp1-expressing LLC-PK1 cells. Format: functional, cell-based. Also noted: scale not given: the % may be the effect or the level left. To be noted: pig, probe E217betaG, read-out: Activity.

Data set [2] concerns the target T2, Oatp2 (Solute carrier organic anion transporter family member 1A4) (Rattus norvegicus, UniProt O35913).
T2 sequence (O35913 whole entry): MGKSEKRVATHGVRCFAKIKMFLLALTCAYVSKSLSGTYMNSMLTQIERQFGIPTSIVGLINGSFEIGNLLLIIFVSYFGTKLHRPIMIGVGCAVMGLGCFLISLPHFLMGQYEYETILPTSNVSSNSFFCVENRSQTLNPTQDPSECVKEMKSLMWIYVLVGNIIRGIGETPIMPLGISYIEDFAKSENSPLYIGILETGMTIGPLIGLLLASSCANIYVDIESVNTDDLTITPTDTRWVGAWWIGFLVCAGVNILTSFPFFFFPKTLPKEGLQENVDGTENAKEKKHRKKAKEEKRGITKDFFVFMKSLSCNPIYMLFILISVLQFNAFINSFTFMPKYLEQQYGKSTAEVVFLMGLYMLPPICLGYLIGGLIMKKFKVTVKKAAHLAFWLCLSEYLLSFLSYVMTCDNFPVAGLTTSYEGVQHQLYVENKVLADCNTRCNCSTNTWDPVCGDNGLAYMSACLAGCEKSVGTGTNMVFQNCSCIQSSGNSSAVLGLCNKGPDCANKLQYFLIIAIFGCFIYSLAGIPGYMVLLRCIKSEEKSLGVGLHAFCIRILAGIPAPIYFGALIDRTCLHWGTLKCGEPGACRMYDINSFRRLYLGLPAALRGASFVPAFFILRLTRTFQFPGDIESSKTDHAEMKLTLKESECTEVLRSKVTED
In words: TP_TRANSPORTER: inhibition of Digoxin uptake (Digoxin: 0.05 uM, Indomethacin: 1000 uM) in Oatp2-expressing LLC-PK1 cells. Particulars: pig, probe Digoxin, read-out: Activity. Format: functional, cell-based. More on the design: scale not given: the % may be the effect or the level left.

For data set [3], the target named is T1, Oatp1 (Solute carrier organic anion transporter family member 1A1). As to the kind of experiment: TP_TRANSPORTER: inhibition of E217betaG uptake (E217betaG: 0.1 uM, Verapamil: 1000 uM) in Oatp1-expressing LLC-PK1 cells. Format: functional, cell-based. More on the design: scale not given: the % may be the effect or the level left. To be noted: pig, probe E217betaG, read-out: Activity.

In data set [4] the target is T2, Oatp2 (Solute carrier organic anion transporter family member 1A4). In words: TP_TRANSPORTER: inhibition of Digoxin uptake (Digoxin: 0.05 uM, Verapamil: 1000 uM) in Oatp2-expressing LLC-PK1 cells. Format: functional, cell-based. Also noted: scale not given: the % may be the effect or the level left. To be noted: pig, probe Digoxin, read-out: Activity.
Data set [5] addresses T3, Solute carrier organic anion transporter family member 1A4 (Rattus norvegicus, UniProt O35913).
T3 sequence (O35913 whole entry): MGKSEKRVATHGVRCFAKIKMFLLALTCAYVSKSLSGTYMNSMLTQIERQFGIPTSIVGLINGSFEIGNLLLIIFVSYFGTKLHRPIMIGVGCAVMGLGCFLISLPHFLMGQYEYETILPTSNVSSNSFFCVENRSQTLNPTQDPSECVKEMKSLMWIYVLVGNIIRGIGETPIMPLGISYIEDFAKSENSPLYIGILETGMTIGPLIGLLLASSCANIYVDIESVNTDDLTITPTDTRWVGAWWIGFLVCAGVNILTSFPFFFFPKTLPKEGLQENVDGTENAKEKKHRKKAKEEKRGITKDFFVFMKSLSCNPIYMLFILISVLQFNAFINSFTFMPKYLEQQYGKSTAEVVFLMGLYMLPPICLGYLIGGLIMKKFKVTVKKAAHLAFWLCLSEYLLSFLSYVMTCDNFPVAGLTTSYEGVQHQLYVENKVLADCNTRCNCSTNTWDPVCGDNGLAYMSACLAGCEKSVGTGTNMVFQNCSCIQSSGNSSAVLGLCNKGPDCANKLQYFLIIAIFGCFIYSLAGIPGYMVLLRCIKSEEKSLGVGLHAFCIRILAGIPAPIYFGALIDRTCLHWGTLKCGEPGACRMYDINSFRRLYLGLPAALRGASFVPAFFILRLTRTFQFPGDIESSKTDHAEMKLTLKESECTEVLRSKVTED
As to the kind of experiment: TP_TRANSPORTER: inhibition of Digoxin uptake in Oatp2-expressing LLC-PK1 cells. It is filed as functional, cell-based.

The target in data set [6] is T4, Solute carrier organic anion transporter family member 1A1 (Rattus norvegicus, UniProt P46720).
T4 sequence (P46720 whole entry): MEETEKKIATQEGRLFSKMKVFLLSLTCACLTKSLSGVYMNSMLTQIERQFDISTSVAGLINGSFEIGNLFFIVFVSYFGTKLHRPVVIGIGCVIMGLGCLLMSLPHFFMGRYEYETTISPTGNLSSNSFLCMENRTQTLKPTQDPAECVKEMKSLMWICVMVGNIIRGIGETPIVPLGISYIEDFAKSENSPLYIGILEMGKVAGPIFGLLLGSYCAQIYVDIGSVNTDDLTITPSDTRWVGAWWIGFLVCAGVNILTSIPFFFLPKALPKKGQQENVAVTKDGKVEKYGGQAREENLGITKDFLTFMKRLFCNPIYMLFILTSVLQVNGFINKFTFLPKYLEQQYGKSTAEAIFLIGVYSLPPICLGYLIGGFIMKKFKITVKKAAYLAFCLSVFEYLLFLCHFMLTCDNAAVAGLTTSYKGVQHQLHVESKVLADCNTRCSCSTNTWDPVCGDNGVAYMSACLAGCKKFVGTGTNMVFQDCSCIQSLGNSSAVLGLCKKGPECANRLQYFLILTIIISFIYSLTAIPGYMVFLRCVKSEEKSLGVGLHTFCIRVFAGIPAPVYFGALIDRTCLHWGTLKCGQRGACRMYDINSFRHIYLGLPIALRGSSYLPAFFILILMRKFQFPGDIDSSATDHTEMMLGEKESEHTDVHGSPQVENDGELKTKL
In words: TP_TRANSPORTER: inhibition of E217betaG uptake in Oatp1-expressing LLC-PK1 cells. Format: functional, cell-based.

Data set [7] deals with T2, Oatp2 (Solute carrier organic anion transporter family member 1A4). As to the kind of experiment: in vitro. To be noted: pig, Oatp2-expressing LLC-PK1 cells, probe Digoxin.
The target of data set [8] is T1, Oatp1 (Solute carrier organic anion transporter family member 1A1). In words: in vitro. To be noted: pig, Oatp1-expressing LLC-PK1 cells, probe E217betaG.
Data set [9] has the same target. In words: TP_TRANSPORTER: inhibition of E217betaG uptake (E217betaG: 0.1 uM, Deoxycorticosterone: 100 uM) in Oatp1-expressing LLC-PK1 cells. It is filed as functional, cell-based. Also noted: scale not given: the % may be the effect or the level left. To be noted: pig, probe E217betaG, read-out: Activity.
The target of data set [10] is T2, Oatp2 (Solute carrier organic anion transporter family member 1A4). As to the kind of experiment: TP_TRANSPORTER: inhibition of Digoxin uptake (Digoxin: 0.05 uM, Deoxycorticosterone: 100 uM) in Oatp2-expressing LLC-PK1 cells. Also noted: scale not given: the % may be the effect or the level left. It is filed as functional, cell-based. To be noted: pig, probe Digoxin, read-out: Activity.

Each structure is given as a SMILES string.

As for `COc1ccc2c(c1)c(CC(=O)O)c(C)n2C(=O)c1ccc(Cl)cc1` [INDOMETHACIN], the activity at 1000 µM in data set [1] is 1.16%; in data set [2], 14.3%.
As to `COc1ccc(CCN(C)CCCC(C#N)(c2ccc(OC)c(OC)c2)C(C)C)cc1OC` (stereo not drawn), the activity at 1000 µM came out at 3.93% in [3] and 4.12% in data set [4].
One may read the Ki as a measure of affinity in units of concentration, obtained from inhibition or displacement. Turning to `CC(C)Cc1ccc(C(C)C(=O)O)cc1` (stereo not drawn) [IBUPROFEN], the results for the Ki in [5] and in data set [6] were 2430 µM and 126 µM, respectively.
Take `C=C[C@H]1C[N@@]2CC[C@H]1C[C@@H]2[C@@H](O)c1ccnc2ccc(OC)cc12` [QUINIDINE]: the Ki in data set [5] amounted to 120 µM.
As to `COc1ccc2cc([C@H](C)C(=O)O)ccc2c1` [NAPROXEN], the activity at 1000 µM in data set [7] was 52.2%; in [8], 19.9%.
Take `C[C@]12CC[C@H]3[C@@H](CCC4=CC(=O)CC[C@@]43C)[C@@H]1CC[C@@H]2C(=O)CO` [DESOXYCORTICOSTERONE]: the values for the activity at 100 µM in data set [9] and in [10] were 1.34% and 13.6%, respectively.
As for `CO[C@H]1/C=C/O[C@@]2(C)Oc3c(C)c(O)c4c(O)c(c(/C=N/N5CCN(C)CC5)c(O)c4c3C2=O)NC(=O)/C(C)=C\C=C\[C@H](C)[C@H](O)[C@@H](C)[C@@H](O)[C@@H](C)[C@H](OC(C)=O)[C@@H]1C` [RIFAMPIN], the Ki in data set [5] is 1.46 µM; in data set [6], 18.2 µM.
